# Experimental data as given in patent US6572877B2, “Worm food composition” (Legend Laboratories Corporation, priority 2001, dated 2003).
# System: Lumbricus terrestris
# Assay: Feeding experiment with Lumbricus terrestris (Canadian night crawler), cartons of one dozen worms plus bedding
# Assay type: in vivo
# Conditions: Carton 1
# Description: The first experiment was conducted with Lumbricus terrestris. Lumbricus terrestris typically measures from 90-300 mm by 6-10 mm having a dark anterior and a pale flattened posterior. These worms live in an anecic habit meaning that they build permanent, vertical burrows that extend typically 2.5 m into the soil. Such worms feed in decaying organic material and grow and breed very slowly compared to other worms. This worm must have the burrow to return to and simply won't perform well in a worm bin. In their natural habitat such worms can live up to six years.
# In the experiment, five cartons containing one dozen worms plus bedding each were kept in the refrigerator at 36° F. to 40° F. prior to the beginning the experiment. After refrigeration the following compounds were added to the specified cartons. Carton 1 was treated with a stock solution of 5 ml xanthene acid yellow 73 from a stock solution of 0.5 g xanthene acid yellow 73 in 500 ml distilled water. Carton 2 was treated with 5 grams of a stock mixture having 40 grams corn meal and 1 gram xanthene acid yellow 73. This mixture was simply added to Carton 2 and was not agitated. Carton 3 was treated with 5 grams of the same stock mixture and shaken gently to evenly disperse the mixture in Container 3. Carton 4 was treated with 5 grams from a mixture of 40 grams corn meal and 2 grams xanthene acid yellow 73 and was not agitated. […]
compound,measurement,setting,value
O=C([O-])c1ccccc1-c1c2ccc(=O)cc-2oc2cc([O-])ccc12.[Na+].[Na+] [xanthene acid yellow 73],color of the worm,"5 ml of stock solution 0.5 g in 500 ml distilled water, after 7 days",no change in the color of the worm
same,condition of the worms,"5 ml of stock solution, after six weeks",weak and dying from lack of nutrition
